Results taken from patent publication US20020037544A1 (priority 1998, published 2002).
Entries after “also recorded” stand apart in the source; their conditions may differ.

Columns and labels:
[1] = test system: β-catenin, p120 and p100; assay: PY20 anti-phosphotyrosine immunoprecipitation and immunoblotting; type: cell-based, Human; details: HUVEC; for β-catenin and p120/p100 in phosphotyrosine (PY20) immunoprecipitates: 2.6 nM VEGF or 10 μM histamine 5 minutes, 100 μM pervanadate 15 minutes
Method: For p120/p100-specific and phosphotyrosine (PY20) protein immunoprecipitations, the cells were lysed in boiling SDSSB (1% SDS, 25 mM Hepes, 2 mM EDTA, 0.1 M NaCl, 25 mM NaF, 1 mM vanadate, pH 7.6). The lysate was then collected, heated at 100° C. for 5 minutes, cooled and diluted with four volumes of ice-cold TX buffer that contained 2.9% instead of 1% Triton X-100. Immunoprecipitation was performed as described for TX buffer extractions.
Some cells were treated for 15 minutes with 100 μM of the broad-spectrum tyrosine phosphatase inhibitor, pervanadate. Lysates of the cells were prepared by immediate extraction into a boiling solution of an SDS-based buffer containing kinase and phosphatase inhibitors, as described above.
These extracts were then immunoprecipitated with antiphosphotyrosine antibody PY20 and analyzed by immunoblotting with PY20 (FIG. 7D).

[2] = test system: p42 and p44 MAP kinase; assay: immunoblot for activated forms of p42 and p44 MAP kinase in HUVEC; type: cell-based, Human; details: for amount of activated (phosphorylated) p42/p44 MAP kinase: 10 μM histamine, 200 nM phorbol 12,13 dibutyrate
Method: (§1) Human umbilical vein endothelial cells (HUVEC), pooled donors, were from BioWhitaker and cultured in EGM on collagen-coated plastic (Falcon) according to the supplier's instructions. The cells were cultured in medium in the presence of 100 U/ml penicillin and 100 μg/ml streptomycin at 37° C. in humidified air containing 10% CO2. Routinely, stocks were maintained in 75 cm^2 flasks and split at a 1:3 ratio when almost confluent. For experimental use, cells were seeded in appropriate plasticware such that confluence was established within 2-3 days and the cells were usually used 5-6 days after seeding. Prior to experimental use, confluent monolayers of cells were equilibrated in fresh medium for at least 2 hours prior to the start of the experiment. Compounds and agents that were only soluble in Me2SO were added to the culture medium of the cells in an equal volume of CO2-and temperature-equilibrated medium containing twice the finally required concentration of compound. […] Aqueous soluble agents were added at a 1:100 dilution directly to the cultures. In all cases, appropriate vehicle controls were performed and found to have no effect.
(§2) Whole cell lysates were prepared by aspiration of culture medium and immediately replacing it with boiling hot Laemmli sample buffer (Laemmli, U. K. (1970) Cleavage of structural proteins during the assembly of the head of bacteriophage T4. Nature 227, 680-685) supplemented with 5 mM EDTA.Na4. The samples were collected and heated at 100° C. for 5 minutes. Proteins were resolved by gel electrophoresis using 8% acrylamide slab gels (Hoefer SE 600 system, 16 cm) and the buffers described (Laemmli, 1970, loc cit). Gels were run overnight at 55 V. The gels were then equilibrated for 30 minutes in buffer at 4° C. containing 48 mM Tris, 39 mM glycine, 0.03% SDS (w/v) and 20% methanol (v/v), and electrotransferred to nitrocellulose filters (Hybond ECL, Amersham) at 4° C. After Ponceau S staining, the filters were blocked in PBS containing 1% (w/v) BSA and 0.05% (v/v) Tween-20. The filters were then incubated with primary antibody, rinsed and immunoreactive bands were detected using appropriate HRP-conjugated secondary antibody and chemiluminescence (ECL, Amersham).
To reveal other changes in VEGF-stimulated signalling processes, the filters were also probed with an antibody recognizing the activated forms of p42 and p44 MAP kinase.
(§3) Cell extracts were prepared and p120 (◯) and p100 (●) were detected by immunoblotting following SDS-PAGE, FIG. 2, Panel A. The same filter was also probed with the antibody recognizing the activated forms of p42 and p44 MAP kinase (arrowheads), FIG. 2, Panel B. Equal loading of lanes was verified as in FIG. 1. […] After 60 minutes of incubation, the effect was less apparent (FIG. 2A). The kinetics paralleled those of the increase in amount of activated MAP kinase (FIG. 2B).
(§4) Cell extracts were prepared and p120 (◯) and p100 (●) were detected by immunoblotting following SDS-PAGE, FIG. 3, Panel A. The same filter was also probed with the antibody recognizing the activated forms of p42 and p44 MAP kinase (arrowheads), FIG. 3, Panel B. Equal loading lanes was verified as in FIG. 1. […] The sensitivity of the increase in amount of activated MAP kinase paralleled that of the increase in p120/p100 mobility (FIG. 3B).
To determine which receptor(s) were responsible for the p120/p100 shift, the effects of placenta derived growth factor (P/GF), a VEGFR-1-specific ligand, were examined. Confluent monolayers of HUVECs were incubated for 5 minutes in the absence (lane labelled C) or presence of P/GF at 100 (P/GF100) or 1000 ng/ml (P/GF1000). […] In another experiment, the cells were preincubated for 30 minutes in the absence (−) or presence (+) of 5 μM of the VEGFR-2 inhibitor SU5416. […] In all cases, cell extracts were prepared and p120 (◯) and […] (●) were detected by immunoblotting following SDS-PAGE, FIGS. 4A and 4C. […]

[3] = test system: p120 and p100; assay: p120/p100 band shift (mobility shift) by SDS-PAGE and immunoblotting in HUVEC; type: cell-based, Human; details: for p120/p100 electrophoretic mobility (band shift): 10 μM histamine, 200 nM PDB
Method: as §1, §2
Incubations were performed in triplicate and analyzed in parallel. The cells were extracted in Laemmli sample buffer and proteins were resolved by SDS-PAGE. […] Other experiments have shown that this is due to the loss of phosphate from the protein on serine and threonine residues.
as §3, §4
To determine which receptor(s) were responsible for the p120/p100 shift, the effects of placenta derived growth factor (P/GF), a VEGFR-1-specific ligand, were examined.

[4] = test system: p120 and p100; details: HUVEC, 2.6 nM VEGF, 5 minutes
[5] = test system: p120 and p100; details: HUVEC, 5 minutes; 2.6 nM VEGF, 10 μM histamine, 200 nM PDB
Method: [^32P]Phosphate labelling was performed using Puck's Saline A (P-2917; Sigma, supplemented with 10 mM Hepes (Gibco), 2 mM glutamine (Gibco), 1 mM CaCl2, 1 mM MgSO4 and 0.2% (v/v) foetal calf serum. Cultures were rinsed twice with medium and then incubated with the same medium containing 100 μCi/ml of [^32P]phosphate. Labelling was for 2 hours at 37° C. in humidified air with ambient CO2.
For phosphorylation analysis, cultures of HUVECs were labelled with [^32P]orthophosphate. After appropriate treatment, the cultures were lysed in boiling SDSSB and immunoprecipitated with the anti-p120/p100 antibody as described. For quantitation of [^32P]phosphate:protein, each immunoprecipitation was from protein extracted from ˜10 cm^2 of confluent culture. For the phosphoaminoacid analysis and Cleveland maps, protein from ˜60 cm^2 of confluent cells was used per immunoprecipitation. After separation by SDS-PAGE, for quantitation of [^32P]phosphate and p120/p100, protein was transferred to nitrocellulose and [^32P]phosphate incorporated into p120/p100 was detected by autoradiography. […] The area of filter containing p120 or p100 was detected by autoradiography, excised, and protein was acid hydrolysed to release phosphoaminoacids. These were then separated in two dimensions by high voltage electrophoresis at pH 1.9 and pH 3.5 and detected by autoradiography (Boyle et al., 1991). […]

[6] = test system: HUVEC; details: 2.6 nM VEGF, 5 minutes
Method: Confluent monolayers of cells were fixed at room temperature for 15 minutes in 3% paraformaldehyde made up in PBS. Fixed cells were rinsed and then permeabilized by incubation with 0.5% Triton X-100 in PBS for 30 minutes. All antibodies were diluted in PBS containing 10% FCS, 0.1 M lysine, 0.3% Triton-X-100 and 0.02% azide. Incubation with antibody recognizing junction-associated protein was at 4° C. overnight followed by incubation with mouse or rabbit anti-phosphotyrosine antibody for 2 hours at room temperature. Secondary antibodies recognizing mouse and rabbit IgG conjugated to Cy3 or fluorescein, respectively, were applied together for 1 hour at room temperature. After rinsing, the samples were mounted under Citifluor and viewed with epifluorescence on a Nikon Eclipse E800 microscope. Photographs were taken using Kodak T-MAX film (400 ASA).
After 5 minutes, the cells were fixed and then stained. […] All images were from similarly timed exposures. Bar, 20 μm.

[7] = test system: cadherin/catenin complex; details: HUVEC, 2.6 nM VEGF, 5 minutes
Method: For analysis of the cadherin and its association with catenins, extraction and immunoprecipitations were performed at 4° C. Cultures were briefly rinsed with ice-cold PBS and then lysed in TX buffer (1% (v/v) Triton X-100, 25 mM Hepes, 2 mM EDTA, 0.1 M NaCl, 25 mM NaF, 1 mM vanadate, pH 7.6 (adjusted with NaOH), 1 mM PMSF, 10 μg/ml soybean trypsin inhibitor, 0.1 U/ml α2-macroglobulin, 10 μg/ml leupeptin). The cells were extracted into lysis buffer for 10-15 minutes and then collected after scraping the dish. The lysates were centrifuged at 14,000×g for 20 minutes. The supernatant was precleared with protein A-Sepharose (Pharmacia) for 1 hour and then incubated with primary antibody for 1 hour followed by a further 1 hour with protein A-Sepharose together with rabbit anti-mouse antibodies. After five washes in lysis buffer, immune complexes were dissociated by addition of Laemmli sample buffer followed by heating at 100° C. for 5 minutes. Protein analysis was by SDS-PAGE and immunoblotting as described above.

[8] = HUVEC preincubated 30 minutes with 5 μM, then 2.6 nM VEGF 5 minutes
[9] = HUVEC preincubated 30 minutes with 5 μM, then 10 μM histamine 5 minutes
[10] = HUVEC, 100 μM pervanadate, 15 minutes
[11] = HUVEC, 5 minutes, P/GF at 100 or 1000 ng/ml

Q: How did the “β-catenin and p120/p100 in phosphotyrosine (PY20) immunoprecipitates” value [1] turn out when `NCCc1c[nH]cn1` [Histamine, reference compound] was run?
A: did not reveal any hint

Q: And the “amount of activated (phosphorylated) p42/p44 MAP kinase” value ([2]; HUVEC, 5 minutes, 2.6 nM VEGF)?
A: increased the amounts of phospho-MAP kinases

Q: What about the “amount of activated (phosphorylated) p42/p44 MAP kinase” value ([2]; HUVEC, 5 minutes, 2.6 nM VEGF, listed as histamine) of the same molecule?
A: effective; also recorded: produced effects

Q: What about the “p120/p100 electrophoretic mobility (band shift)” value ([3]; HUVEC, 5 minutes, 2.6 nM VEGF) of the same molecule?
A: effective; also recorded: increased electrophoretic mobility; also recorded: produced effects

Q: Which results are given for `CCCC(=O)O[C@@H]1[C@@H](C)[C@@]2(O)[C@@H](C=C(CO)C[C@]3(O)C(=O)C(C)=C[C@@H]23)[C@@H]2C(C)(C)[C@]12OC(=O)CCC` [PDB, Phorbol-12,13-dibutyrate, reference compound]?
A: amount of activated (phosphorylated) p42/p44 MAP kinase ([2]; HUVEC, 5 minutes, 2.6 nM VEGF): without effect; p120/p100 electrophoretic mobility (band shift) ([3]; HUVEC, 5 minutes, 2.6 nM VEGF): increased electrophoretic mobility

Q: What does the source list for `Cc1cc(C)c(/C=C2\C(=O)Nc3ccccc32)[nH]1` [SU5416, reference compound]?
A: effect on VEGF-stimulated activation of MAP kinase [2, 8]: blocked; effect on histamine-stimulated activation of MAP kinase [2, 9]: did not block; effect on VEGF-stimulated increase in p120/p100 mobility [3, 8]: blocked; effect on histamine-stimulated mobility shift in p120/p100 [3, 9]: did not block

Q: Which results are given for VEGF?
A: phosphotyrosine in p120 and p100 [4]: not detected; amount of phosphoserine and phosphothreonine in p120 and p100 ([4]; 10 μM histamine, 200 nM PDB): decreased; focal contact protein tyrosine phosphorylation (PY20 immunoprecipitation) ([1]; 2.6 nM VEGF, 5 minutes): increased; β-catenin and p120/p100 in phosphotyrosine (PY20) immunoprecipitates [1]: did not reveal any hint; kinetics of increase in activated MAP kinase relative to p120/p100 mobility ([2]; HUVEC, 2.6 nM VEGF, time course): paralleled; sensitivity of increase in activated MAP kinase relative to p120/p100 mobility ([2]; HUVEC, 5 minutes, indicated concentrations of VEGF): paralleled; amount of activated (phosphorylated) p42/p44 MAP kinase ([2]; HUVEC, 5 minutes, 2.6 nM VEGF): clearly stimulated an increase; also recorded: effective; also recorded: produced effects; phosphate incorporation into 30 kDa and 17 kDa V8 cleavage products of p120 and p100 [5]: substantially decreased; time at which increase in mobility of p120 and p100 was observed ([3]; HUVEC, 2.6 nM (100 ng/ml) VEGF): ≤ 2 min; time for which increase in mobility of p120 and p100 was sustained ([3]; HUVEC, 2.6 nM (100 ng/ml) VEGF): up to 30 minutes; effect on p120/p100 mobility after 60 minutes of incubation ([3]; HUVEC, 2.6 nM VEGF, 60 minutes): less apparent; lowest concentration with observed effect on p120/p100 mobility ([3]; HUVEC, 5 minutes): 0.1 nM; p120/p100 electrophoretic mobility (band shift) ([3]; HUVEC, 5 minutes, 2.6 nM VEGF): migrate as faster, tighter bands; also recorded: effective; also recorded: increased electrophoretic mobility; also recorded: produced effects; colocalization of altered phosphotyrosine staining with β-catenin staining [6]: did not colocalize; phosphotyrosine striations within the cells [6]: increased; vinculin staining [6]: appearance of vinculin-positive striations; association of catenins with cadherins (VE-cadherin, N-cadherin, α, β and γ catenin, p120, p100) [7]: no effect on association of any members of the complex

Q: For pervanadate [reference compound], which “β-catenin and p120/p100 in phosphotyrosine (PY20) immunoprecipitates” value [1] is on record?
A: detected

Q: And the “activation of MAP kinase” value [2, 10]?
A: did lead to activation of MAP kinase

Q: And the “mobility of p120/p100” value [3, 10]?
A: did not affect the mobility

B1: P/GF: placenta derived growth factor, a VEGFR-1-specific ligand, from R & D Systems (protein, UniProt P49763 19-221, looked up)
Placenta growth factor: LPAVPPQQWALSAGNGSSEVEVVPFQEVWGRSYCRALERLVDVVSEYPSEVEHMFSPSCVSLLRCTGCCGDENLHCVPVETANVTMQLLKIRSGDRPSYVELTFSQHVRCECRHSPGRQSPDMPGDFRADAPSFLPPRRSLPMLFRMEWGCALTGSQSAVWPSSPVPEEIPRMHPGRNGKKQQRKPLREKMKPERCGDAVPRR
Q: Which “activation of MAP kinase” value [2, 11] does the source give for B1 here?
A: did not lead to activation of MAP kinase

Q: What about the “mobility shift in p120/p100” value [3, 11] of the same molecule?
A: failed to stimulate a mobility shift
